The source of these data is ChEMBL document CHEMBL4431304, “Myritonines A-C, Alkaloids from Myrioneuron tonkinensis Based on a Novel Hexacyclic Skeleton” (J Nat Prod, 2016).

SMILES strings stand for the structures. The source made the active and inactive calls. The rule behind the calls is not given here.

For one data set, the system named is MCF7. In words: Cytotoxicity against human MCF7 cells assessed as reduction in cell viability after 48 hrs by MTT assay. Particulars: MCF7, 48 h. Type of data set: functional, cell-based.
Another data set deals with A549. In words: Cytotoxicity against human A549 cells assessed as reduction in cell viability after 48 hrs by MTT assay. Type of data set: functional, cell-based. Particulars: A549, 48 h.
A further data set relates to SMMC-7721. Briefly: Cytotoxicity against human SMMC7721 cells assessed as reduction in cell viability after 48 hrs by MTT assay. Conditions: SMMC-7721, 48 h. Type of data set: functional, cell-based.
In another data set the test system is SW480. Briefly: Cytotoxicity against human SW480 cells assessed as reduction in cell viability after 48 hrs by MTT assay. Type of data set: functional, cell-based. Particulars: SW480, 48 h.
Another data set deals with HL-60. Briefly: Cytotoxicity against human HL60 cells assessed as reduction in cell viability after 48 hrs by MTT assay. Type of data set: functional, cell-based. Particulars: HL-60, 48 h.
The test system of the next data set is Hepatitis C virus. Briefly: Antiviral activity against HCV infected in human Huh7.5 cells assessed as decrease in viral RNA level after 72 hrs by RT-PCR method. Format: functional, organism-based. Conditions: Hepacivirus hominis.
Data set [1] in a line: Therapeutic index, ratio of CC50 for human Huh7.5 cells to EC50 for Hepatitis C virus. Format: toxicity. Conditions: read-out: Ratio CC50/EC50.

Turning to `N#C[C@@H]1N2CCC[C@H]3[C@@H]4CCCCN4[C@@H]4CC[C@H]5CCC[C@]1(O)[C@@H]5N4[C@@H]32`, the IC50 in the data set with MCF7, in the data set on A549, with SMMC-7721, in the data set on SW480 and in the data set with HL-60 was greater than 10 µM each time.
Turning to `O=C1[C@H]2CCC[C@H]3CC[C@H]4N5CCCC[C@H]5[C@@H]5CCCN1[C@H]5N4[C@@H]32`, the IC50 in the data set on MCF7, in the data set with A549, in the data set with SMMC-7721, in the data set on SW480 and in the data set with HL-60 was greater than 10 µM throughout. For the same compound, the outcome with Hepatitis C virus was Active. The selectivity ratio in data set [1] was greater than 11.
On to `C1C[C@H]2CC[C@H]3N4CCCC[C@H]4[C@@H]4CCCN5C[C@@H](C1)[C@H]2N3[C@@H]45`, for which the concentration for half-maximal inhibition (IC50) in the data set with MCF7, with A549, in the data set on SMMC-7721, in the data set on SW480 and with HL-60 was greater than 10 µM each time. The result in the data set with Hepatitis C virus was Active. Also, the selectivity ratio in data set [1] was greater than 12.
